Laboratory results as given in the CheMixHub viscosity set.
± gives the uncertainty stated by the source.

Experiment: xn = mol fraction of the nth substance listed

CC(C)c1ccccc1 + CCCCCCCCCCCCCCCC
viscosity [mPa·s], 100 kPa
Conditions | x2 = 0.0536 | x2 = 0.1093 | x2 = 0.2207 | x2 = 0.2969 | x2 = 0.4217 | x2 = 0.5376 | x2 = 0.6083 | x2 = 0.7347 | x2 = 0.823 | x2 = 0.8933
298.15 K | 0.834 ± 0.008 | 0.921 ± 0.009 | 1.117 ± 0.011 | 1.249 ± 0.013 | 1.525 ± 0.015 | 1.815 ± 0.018 | 2.002 ± 0.02 | 2.356 ± 0.024 | 2.602 ± 0.026 | 2.783 ± 0.028
308.15 K | 0.77 ± 0.008 | 0.846 ± 0.009 | 1.018 ± 0.01 | 1.136 ± 0.011 | 1.348 ± 0.014 | 1.561 ± 0.016 | 1.687 ± 0.017 | 1.932 ± 0.019 | 2.098 ± 0.021 | 2.236 ± 0.022
318.15 K | 0.688 ± 0.007 | 0.76 ± 0.008 | 0.904 ± 0.009 | 1.003 ± 0.01 | 1.176 ± 0.012 | 1.34 ± 0.013 | 1.444 ± 0.015 | 1.629 ± 0.016 | 1.756 ± 0.018 | 1.859 ± 0.019

[Cl-].[Cl-].[Mn+2] + O
Conditions | viscosity [mPa·s]
298.15 K, 101.33 kPa, x1 = 0.09931 | 8.35 ± 0.23

CCOC(=O)c1ccc(O)cc1 + CCCCCOC(C)=O
Conditions | viscosity [mPa·s]
298.15 K, 101 kPa, x1 = 0.5 | 1.66 ± 0.02

Clc1ccccc1Cl + Nc1cccc(Cl)c1
viscosity [mPa·s], 100 kPa
Conditions | x2 = 0.1053 | x2 = 0.2011 | x2 = 0.3045 | x2 = 0.4064 | x2 = 0.507 | x2 = 0.6062 | x2 = 0.7041 | x2 = 0.8007 | x2 = 0.906
303.15 K | 1.568 ± 0.012 | 1.866 ± 0.014 | 2.184 ± 0.016 | 2.495 ± 0.018 | 2.799 ± 0.02 | 3.097 ± 0.022 | 3.389 ± 0.024 | 3.674 ± 0.026 | 3.983 ± 0.028
308.15 K | 1.444 ± 0.012 | 1.71 ± 0.013 | 1.995 ± 0.015 | 2.274 ± 0.017 | 2.546 ± 0.019 | 2.812 ± 0.021 | 3.072 ± 0.023 | 3.326 ± 0.025 | 3.6 ± 0.027
313.15 K | 1.319 ± 0.011 | 1.555 ± 0.013 | 1.807 ± 0.014 | 2.053 ± 0.016 | 2.293 ± 0.018 | 2.527 ± 0.019 | 2.756 ± 0.021 | 2.979 ± 0.023 | 3.22 ± 0.025
318.15 K | 1.206 ± 0.011 | 1.412 ± 0.012 | 1.629 ± 0.013 | 1.842 ± 0.015 | 2.048 ± 0.017 | 2.25 ± 0.018 | 2.447 ± 0.02 | 2.639 ± 0.021 | 2.845 ± 0.023

CCCN + CCCCCO
viscosity [mPa·s], 101.33 kPa
Conditions | x1 = 0.0915 | x1 = 0.1847 | x1 = 0.3069 | x1 = 0.4139 | x1 = 0.4894 | x1 = 0.581 | x1 = 0.7163 | x1 = 0.8117 | x1 = 0.9
303.15 K | 2.504 ± 0.015 | 2.167 ± 0.013 | 1.755 ± 0.011 | 1.431 ± 0.0089 | 1.224 ± 0.0077 | 0.9914 ± 0.0063 | 0.7168 ± 0.0048 | 0.5615 ± 0.0041 | 0.4508 ± 0.0036
313.15 K | 2.066 ± 0.013 | 1.79 ± 0.011 | 1.437 ± 0.0091 | 1.176 ± 0.0075 | 1.003 ± 0.0065 | 0.8193 ± 0.0054 | 0.6111 ± 0.0043 | 0.488 ± 0.0037 | 0.3958 ± 0.0034

CCCCCCCC(=O)O + CCCCCC(=O)[O-].[Na+]
100 kPa, x2 = 0.3
Conditions | viscosity [mPa·s]
293.15 K | 305.9 ± 10
298.15 K | 226.5 ± 6.7
303.15 K | 171.1 ± 4.2
308.15 K | 131.6 ± 2.7
313.15 K | 103 ± 1.7
318.15 K | 81.7 ± 1.1
323.15 K | 65.7 ± 0.7
